# Measured values as given in article PMC4833640 (Journal of Medicinal Chemistry, 2016).
# Assay: physchem
# Conditions: measured pKa values
row,Compound,pKa
1,"O=C(CCc1ccccc1)NO [Compound 2, N-(Hydroxy)-3-phenylpropanamide]",> 8
2,"CC(=O)N(O)CCc1ccccc1 [Compound 3, N-Hydroxy-N-phenethylacetamide]",> 8
3,"CONC(=O)CCc1ccccc1 [Compound 4, N-Methoxy-3-phenylpropanamide]",> 8
4,"CC(=O)NOCCc1ccccc1 [Compound 5, N-Phenethoxyacetamide]",> 8
5,"NS(=O)(=O)CCc1ccccc1 [Compound 10, 2-Phenylethane-1-sulfonamide]",> 8
6,"CS(=O)(=O)NCCCc1ccccc1 [Compound 11, N-(3-Phenylpropyl)methanesulfonamide]",> 8
7,"CC(=O)NC(=O)NCc1ccccc1 [Compound 15, N-(Benzylcarbamoyl)acetamide]",> 8
8,"S=c1[nH]c(CCc2ccccc2)no1 [Compound 22, 3-Phenethyl-1,2,4-oxadiazole-5(4H)-thione]",< 4
9,"O=c1c(O)c(Cc2ccccc2)c1=O [Compound 30, 3-Benzyl-4-hydroxycyclobut-3-ene-1,2-dione]",< 4
10,"O=c1c(O)c(NCc2ccccc2)c1=O [Compound 31, 3-(Benzylamino)-4-hydroxycyclobut-3-ene-1,2-dione]",< 4

# Assay: not given
# Conditions: 24 h incubation, aqueous buffer pH 7.4
row,Compound,detection after incubation in aqueous buffer (stability)
1,"Oc1ccccc1SCc1ccccc1 [Compound 34, 2-(Benzylthio)phenol]",not detected after the 24 h incubation in aqueous buffer

# Assay: not given
# Conditions: reason why data were considered unreliable
row,Compound,PAMPA assay observation on the donor plate
1,"Oc1c(F)cc(Cc2ccccc2)cc1F [Compound 32, 4-Benzyl-2,6-difluorophenol]",high nonspecific binding
2,"Oc1c(F)ccc(Cc2ccccc2)c1F [Compound 33, 3-Benzyl-2,6-difluorophenol]",compound precipitation

# Assay: Colorimetric hydrogen-bond assay with pyrazinone sensor
# Format: physicochemical
# Conditions: blue-shift of λmax of the sensor, compared with carboxylic acid 1
row,Compound,hydrogen-bond (HB) interaction with pyrazinone sensor
1,"c1ccc(CCc2nnn[nH]2)cc1 [Compound 16, 5-Phenethyl-1H-tetrazole]",significantly stronger HB interactions than the corresponding carboxylic acid
